Measurements as given in patent US20090048179A1, “USE OF 5-PHOSPHODIESTERASE INHIBITORS TO ENHANCE THE PERMEABILITY OF THE BLOOD-BRAIN BARRIER OF ABNORMAL BRAIN TISSUE AND THE BLOOD-TUMOR BARRIER” (CEDARS-SINAI MEDICAL CENTER, priority 2005, published 2009).
Where a name gives a salt, the structure may show the parent alone. No end group written: not given here.

Legend:
9L glioma = assay: Survival study, 9L/Fischer rats, treatment on days 7, 8 and 9 post tumor implantation; type: in vivo, rat; settings: treatment on days 7, 8 & 9; Levitra 10 mg/kg oral, Adriamycin 2 mg/kg i.v.; control 21.8
Source text: Adult, female Fischer rats (180-200 g) were implanted with 9L glioma cells (100,000 cells). […] 15, 2006.
Rats were monitored daily to determine survival times of the tumor-bearing rats for either death or when animals became moribund, euthanasia was employed.

9L gliosarcoma (9L/Luc) = assay: Tumor size monitoring by bioluminescence imaging and histology; settings: day 9 after the last treatment; saline (2.21±1.27)×10^6
9L gliosarcoma = assay: Survival study, 9L/Luc gliosarcoma-bearing rats, treatment for three days from day 4; type: in vivo, rat; settings: vardenafil 10 mg/kg oral, Adriamycin 2 mg/kg i.v., saline 32±2
Source text: A p-value of less than 0.05 was considered statistically significant.

caveolae endocytosis = assay: In vitro cellular transport of 14C-sucrose with inhibitor of caveolae endocytosis; type: cell-based
Source text: To determine whether this is the case for PDE5 inhibitors, the inventor used filipin, an inhibitor of caveolae endocytosis, in the in vitro cellular transport study (FIG. 21; P<0.05 vs. other two treatments). As shown, fillipin abolished the increased transport of ^14C-sucrose by sildenafil. […] As vesicular transport is not specific to brain microvessels per se, the inventor, while not wishing to be bound by any particular theory, believes the mechanism may be responsible for the increased cellular permeability by PDE5 inhibitors in non-CNS cells studied above.

[1] = system: human breast cancer cell line MDA-MB-231; assay: In vitro 14C-sucrose transport across tumor cells in transwell, MDA-MB-231; type: cell-based
Experimental: (§1) In addition to endothelial cells, the inventor tested whether the inhibition of PDE5 has any effect on tracer transport in other tumor cells. In the studies, two tumor cell lines (human brain metastatic lung cancer cell line CRL-5904 and human breast cancer cell line MDA-MB-231) were tested.

[2] = system: human brain metastatic lung cancer cell line CRL-5904; assay: In vitro 14C-sucrose transport across tumor cells in transwell, CRL-5904; type: cell-based
Experimental: as §1

[3] = system: mouse brain endothelial cells; assay: In vitro cellular transport of 14C-sucrose, brain endothelial cells; type: cell-based
[4] = system: vessel endothelial cells derived from lung tissues (PVEC); assay: In vitro cellular transport of 14C-sucrose, lung vessel endothelial cells; type: cell-based; settings: PVECs
[5] = system: blood-tumor barrier (BTB) of 9L gliosarcoma brain tumors; assay: [14C] sucrose transport (Ki) from blood into 9L brain tumors, quantitative autoradiography; type: in vivo, rat
[6] = Animal physiologic parameters (mean arterial blood pressure, blood gases, side effects); type: in vivo, rat; settings: for reduction in mean-arterial blood pressure: BK femoral infusion, sildenafil 5-100 mg/kg or vardenafil 1-20 mg/kg oral; for detectable side effects (e.g. hypotension): oral doses used in the rats
Experimental: For Ki study described below, six days after tumor implantation, the rats were anesthetized with ketamine/xylazine. One femoral vein was cannulated for administration of the appropriate drug and the radiotracer; one femoral artery was cannulated to withdraw arterial blood, and another femoral artery was cannulated to monitor systemic blood pressure. Body temperature was maintained at 37° C., and arterial blood gases, blood pressure and hematocrit were monitored.
Mean-arterial blood pressures were decrease approximately 30% secondary to the femoral infusion of BK.

cGMP [7] = assay: Plasma cGMP assay in 9L tumor-bearing rats; type: in vivo, rat
Experimental: cGMP levels were determined using a ELISA-based kit (Cayman Chemical Co., Ann Arbor, Mich.) for plasma and immunohistocytochemistry with anti-cGMP antibody (Chemicon Corp.) for tissue sections.
Intracerebral inoculations of 9L tumor cells were performed as described above. […] Different groups of rats were anesthetized 5 minutes before and at 30, 60, 90 and 120 minutes after treatment respectively and the femoral vein was cannulated. Blood was collected and the plasma was separated. The cGMP concentration in the plasma was determined using a commercially available ^125I-labeled cGMP assay kit (Amersham, Arlington Heights, Ill.). cGMP content was expressed as pmol/ml of plasma.

cGMP [8] = assay: Brain cGMP immunohistochemistry in 9L tumor-bearing rats; type: in vivo, rat; settings: oral vardenafil 10 mg/kg
[9] = femoral infusion of BK or oral sildenafil or vardenafil

COc1cccc2c1C(=O)c1c(O)c3c(c(O)c1C2=O)C[C@@](O)(C(=O)CO)C[C@@H]3O[C@H]1C[C@H](N)[C@H](O)[C@H](C)O1 [Adriamycin® (doxorubicin), doxorubicin hydrochloride]
Mean Survival Days, Mean (9L glioma): 30 days
intracerebral tumor size (IVIS bioluminescence) (9L gliosarcoma (9L/Luc)): (1.03±0.28)×10^6
mean survival time (9L gliosarcoma): 42 ± 2 days

CCCCC[C@@H](O)[C@H]1C(=O)O[C@H](C)[C@@H](O)/C=C/C=C/C=C/C=C/C=C(\C)[C@@H](O)C[C@H](O)C[C@H](O)C[C@H](O)C[C@H](O)C[C@H](O)C[C@@H]1O [fillipin, filipin]
effect on the increased transport of 14C-sucrose by sildenafil (caveolae endocytosis): abolished

CCCc1nn(C)c2c(=O)[nH]c(-c3cc(S(=O)(=O)N4CCN(C)CC4)ccc3OCC)nc12 [sildenafil]
14C-sucrose transport across cells seeded in the transwell [1]: increased
14C-sucrose transport across cells seeded in the transwell [2]: increased
14C-sucrose transport [3]: significantly increased
14C-sucrose transport [4]: significantly increased
dose giving maximal effect on permeability ([5]; rat, in vivo): 50 mg/kg
increase in BTB permeability ([5]; rat, in vivo): 1.8 fold
time of maximum transport across the BTB into tumor tissues after administration ([5]; rat, in vivo): 60 min
reduction in mean-arterial blood pressure [6]: 10%
arterial blood pH, carbon dioxide, and partial pressure of oxygen [6, 9]: not changed significantly
detectable side effects (e.g. hypotension) [6]: did not result in any detectable side effects
detectable side effects (e.g. hypotension) ([6]; listed as Viagra®): did not induce hypotension

CCCc1nc(C)c2c(=O)[nH]c(-c3cc(S(=O)(=O)N4CCN(CC)CC4)ccc3OCC)nn12 [vardenafil]
Mean Survival Days, Mean (9L glioma): 22.7 days
plasma cGMP level (cGMP [7]; 30 minutes after oral vardenafil 10 mg/kg, control 0.72±0.48): 54.96 ± 25.13 pg/mL
plasma cGMP level (cGMP [7]; 60 minutes after oral vardenafil 10 mg/kg): 79.20 ± 37.36 pg/mL
plasma cGMP level (cGMP [7]; 90 minutes after oral vardenafil 10 mg/kg): 30.13 ± 17.82 pg/mL
time of peak plasma cGMP concentration (cGMP [7]; oral vardenafil 10 mg/kg): 60 min
time at which tumor cGMP immunostaining returned to the baseline (cGMP [8]): 90 min
mean survival time (9L gliosarcoma): 35 ± 1 days
reduction in mean-arterial blood pressure [6]: 10%
arterial blood pH, carbon dioxide, and partial pressure of oxygen [6, 9]: not changed significantly
detectable side effects (e.g. hypotension) [6]: did not result in any detectable side effects
detectable side effects (e.g. hypotension) ([6]; listed as Levitra®): did not induce hypotension

RPPGFSPFR [BK, Bradykinin]
arterial blood pH, carbon dioxide, and partial pressure of oxygen ([6]; rat, in vivo, po): not changed significantly

iberiotoxin (QFTDVDCSVSKECWSVCKDLFGVDRGKCMGKKCRCYQ; UniProt P24663 1-37, looked up)
effect on vardenafil-induced BTB transport increase ([5]; iberiotoxin 0.26 μg/kg/min infused 15 min with oral vardenafil 10 mg/kg): abolished
